Data published in patent US4288629A, “1-Hydroxymethyl-11-deoxy-15-hydroxy-prosten-1-ol-derivatives” (American Cyanamid Company, priority 1980, dated 1981).

Experiments:
Assay type in all cases: in vivo
Hist = assay: KONZETT DATA, Hist; conditions: spasmogen Hist
5-HT = assay: KONZETT DATA, 5-HT; conditions: spasmogen 5-HT
Ach = assay: KONZETT DATA, Ach; conditions: spasmogen Ach

## CCCCCC(C)(O)/C=C/C1C(O)CC(=O)C1C/C=C\CCCCO (racemic) [dl-1,11,15-trihydroxymethyl-9-oxo-15-methyl-5-cis-13-trans prostadiene]
Hist
  Hist (ED50 g/kg): 0.00075 g/kg
5-HT
  5-HT (ED50 g/kg): 0.0083 g/kg
Ach
  Ach (ED50 g/kg): 0.0043 g/kg
